# Values quoted from earlier work, collected in US12458707B2, “Targeted delivery of immunoregulatory drugs” (The Brigham and Women's Hospital, Inc., priority 2014, dated 2025).
# Test system: NOD mice
# Conditions: 2.5 mg/kg/day every other day
smiles,measurement,value
"C=CC[C@@H]1/C=C(\C)C[C@H](C)C[C@H](OC)[C@H]2O[C@@](O)(C(=O)C(=O)N3CCCC[C@H]3C(=O)O[C@H](/C(C)=C/[C@@H]3CC[C@@H](O)[C@H](OC)C3)[C@H](C)[C@@H](O)CC1=O)[C@H](C)C[C@@H]2OC [TAC, Tacrolimus]",suppression of T1D,efficiently suppress T1D
